Data taken from the supplement of paper PMC10307832.

Columns and labels:
Assay in all cases: relative viability (nuclei count vs DMSO), 5 days (fraction); higher = more cells survive
[1] = tested on: A549
Summary of the method: (§1)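 Five library-drug doses in √10 steps were combined with a fixed anchor-drug dose, or a single drug was given alone, by pin tool to lung cancer cell lines in 1536-well plates the day after seeding. Nuclei were stained and counted after 5 days. Relative viability is the nuclei count in treated wells over that in vehicle wells, taken as the median of duplicate plates.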

[2] = tested on: Calu-6
Summary of the method: as §1

[3] = tested on: EBC-1
Summary of the method: as §1

[4] = tested on: IA-LM
Summary of the method: as §1

[5] = tested on: NCI-H1299
Summary of the method: as §1

[6] = tested on: NCI-H1651
Summary of the method: as §1

[7] = tested on: NCI-H1703
Summary of the method: as §1

[8] = tested on: NCI-H1944
Summary of the method: as §1

[9] = tested on: NCI-H520
Summary of the method: as §1

[10] = tested on: NCI-H650
Summary of the method: as §1

[11] = tested on: NCI-H838
Summary of the method: as §1

[12] = tested on: RERF-LC-KJ
Summary of the method: as §1

With `O=c1cc(N2CCOCC2)oc2c(-c3cccc4c3sc3ccccc34)cccc12` + CS(=O)(=O)CCNCc1ccc(-c2ccc3ncnc(Nc4ccc(OCc5cccc(F)c5)c(Cl)c4)c3c2)o1 [Lapatinib] (partner 2 µM) the relative viability ([1]; first compound 0.01 µM) was 0.964, the relative viability ([1]; first compound 0.03162 µM) was 0.931 and the relative viability ([1]; first compound 0.1 µM) was 0.997. It also gave a relative viability ([1]; first compound 0.3162 µM) of 0.979, a relative viability ([1]; first compound 1 µM) of 0.968 and a relative viability ([2]; first compound 0.01 µM) of 1.08. For the same molecule, the relative viability ([2]; first compound 0.03162 µM) was 1.11, the relative viability ([2]; first compound 0.1 µM) was 1.17 and the relative viability ([2]; first compound 0.3162 µM) was 1.08. It also gave a relative viability ([2]; first compound 1 µM) of 1.05, a relative viability ([3]; first compound 0.01 µM) of 0.227 and a relative viability ([3]; first compound 0.03162 µM) of 0.207. The relative viability ([3]; first compound 0.1 µM) was 0.246, the relative viability ([3]; first compound 0.3162 µM) was 0.237 and the relative viability ([3]; first compound 1 µM) was 0.227. It also gave a relative viability ([4]; first compound 0.01 µM) of 0.764, a relative viability ([4]; first compound 0.03162 µM) of 0.582 and a relative viability ([4]; first compound 0.1 µM) of 0.663. It also gave a relative viability ([4]; first compound 0.3162 µM) of 0.86, a relative viability ([4]; first compound 1 µM) of 0.602 and a relative viability ([5]; first compound 0.01 µM) of 0.957. For the same molecule, the relative viability ([5]; first compound 0.03162 µM) was 0.957, the relative viability ([5]; first compound 0.1 µM) was 0.969 and the relative viability ([5]; first compound 0.3162 µM) was 0.961. For the same molecule, the relative viability ([5]; first compound 1 µM) was 0.964, the relative viability ([6]; first compound 0.01 µM) was 0.746 and the relative viability ([6]; first compound 0.03162 µM) was 0.909. The relative viability ([6]; first compound 0.1 µM) was 0.875, the relative viability ([6]; first compound 0.3162 µM) was 0.741 and the relative viability ([6]; first compound 1 µM) was 0.878. It also gave a relative viability ([7]; first compound 0.01 µM) of 1.36, a relative viability ([7]; first compound 0.03162 µM) of 0.815 and a relative viability ([7]; first compound 0.1 µM) of 1.27. It also gave a relative viability ([7]; first compound 0.3162 µM) of 1.17, a relative viability ([7]; first compound 1 µM) of 1.01 and a relative viability ([8]; first compound 0.01 µM) of 0.842. The relative viability ([8]; first compound 0.03162 µM) was 0.817, the relative viability ([8]; first compound 0.1 µM) was 1.04 and the relative viability ([8]; first compound 0.3162 µM) was 1.01. It also gave a relative viability ([8]; first compound 1 µM) of 0.775, a relative viability ([9]; first compound 0.01 µM) of 0.781 and a relative viability ([9]; first compound 0.03162 µM) of 0.825. It also gave a relative viability ([9]; first compound 0.1 µM) of 0.767, a relative viability ([9]; first compound 0.3162 µM) of 0.816 and a relative viability ([9]; first compound 1 µM) of 0.906. The relative viability ([10]; first compound 0.01 µM) was 0.769, the relative viability ([10]; first compound 0.03162 µM) was 0.973 and the relative viability ([10]; first compound 0.3162 µM) was 1.17. For the same molecule, the relative viability ([10]; first compound 1 µM) was 0.77, the relative viability ([11]; first compound 0.01 µM) was 1.08 and the relative viability ([11]; first compound 0.03162 µM) was 0.915. It also gave a relative viability ([11]; first compound 0.1 µM) of 0.984, a relative viability ([11]; first compound 0.3162 µM) of 0.97 and a relative viability ([11]; first compound 1 µM) of 0.969. For the same molecule, the relative viability ([12]; first compound 0.01 µM) was 0.701, the relative viability ([12]; first compound 0.03162 µM) was 0.882 and the relative viability ([12]; first compound 0.1 µM) was 0.906. The relative viability ([12]; first compound 0.3162 µM) was 0.902 and the relative viability ([12]; first compound 1 µM) was 0.795.

With `O=c1cc(-c2cccc3c2Sc2ccccc2S3)oc(N2CCOCC2)c1` + CS(=O)(=O)CCNCc1ccc(-c2ccc3ncnc(Nc4ccc(OCc5cccc(F)c5)c(Cl)c4)c3c2)o1 [Lapatinib] (partner 2 µM) the relative viability ([1]; first compound 0.08 µM) was 1.04, the relative viability ([1]; first compound 0.253 µM) was 1.23 and the relative viability ([1]; first compound 0.8 µM) was 1.19. For the same molecule, the relative viability ([1]; first compound 2.53 µM) was 0.87, the relative viability ([1]; first compound 8 µM) was 0.995 and the relative viability ([2]; first compound 0.08 µM) was 1.16. It also gave a relative viability ([2]; first compound 0.253 µM) of 1.16, a relative viability ([2]; first compound 0.8 µM) of 1.03 and a relative viability ([2]; first compound 2.53 µM) of 1.07. It also gave a relative viability ([2]; first compound 8 µM) of 1.15, a relative viability ([3]; first compound 0.08 µM) of 0.201 and a relative viability ([3]; first compound 0.253 µM) of 0.191. The relative viability ([3]; first compound 0.8 µM) was 0.196, the relative viability ([3]; first compound 2.53 µM) was 0.204 and the relative viability ([3]; first compound 8 µM) was 0.202. For the same molecule, the relative viability ([4]; first compound 0.08 µM) was 1.16, the relative viability ([4]; first compound 0.253 µM) was 0.806 and the relative viability ([4]; first compound 0.8 µM) was 0.693. For the same molecule, the relative viability ([4]; first compound 8 µM) was 1.2, the relative viability ([5]; first compound 0.08 µM) was 0.972 and the relative viability ([5]; first compound 0.253 µM) was 1. For the same molecule, the relative viability ([5]; first compound 0.8 µM) was 0.997, the relative viability ([5]; first compound 2.53 µM) was 0.975 and the relative viability ([5]; first compound 8 µM) was 0.96. For the same molecule, the relative viability ([6]; first compound 0.08 µM) was 0.866, the relative viability ([6]; first compound 0.253 µM) was 1.06 and the relative viability ([6]; first compound 0.8 µM) was 0.711. The relative viability ([6]; first compound 2.53 µM) was 0.703, the relative viability ([6]; first compound 8 µM) was 0.953 and the relative viability ([7]; first compound 0.08 µM) was 0.886. For the same molecule, the relative viability ([7]; first compound 0.253 µM) was 1.45, the relative viability ([7]; first compound 0.8 µM) was 0.94 and the relative viability ([7]; first compound 2.53 µM) was 1.1. The relative viability ([7]; first compound 8 µM) was 0.971, the relative viability ([8]; first compound 0.08 µM) was 0.846 and the relative viability ([8]; first compound 0.253 µM) was 1.07. For the same molecule, the relative viability ([8]; first compound 0.8 µM) was 0.733, the relative viability ([8]; first compound 8 µM) was 0.998 and the relative viability ([9]; first compound 0.08 µM) was 0.767. It also gave a relative viability ([9]; first compound 0.253 µM) of 1.13, a relative viability ([9]; first compound 0.8 µM) of 0.973 and a relative viability ([9]; first compound 2.53 µM) of 0.787. The relative viability ([9]; first compound 8 µM) was 0.961, the relative viability ([10]; first compound 0.08 µM) was 0.819 and the relative viability ([10]; first compound 0.253 µM) was 0.84. For the same molecule, the relative viability ([10]; first compound 0.8 µM) was 1.16, the relative viability ([10]; first compound 2.53 µM) was 0.706 and the relative viability ([10]; first compound 8 µM) was 0.842. For the same molecule, the relative viability ([11]; first compound 0.08 µM) was 0.973, the relative viability ([11]; first compound 0.253 µM) was 1.36 and the relative viability ([11]; first compound 0.8 µM) was 0.844. The relative viability ([11]; first compound 2.53 µM) was 0.969, the relative viability ([11]; first compound 8 µM) was 0.953 and the relative viability ([12]; first compound 0.08 µM) was 0.836. For the same molecule, the relative viability ([12]; first compound 0.253 µM) was 0.998, the relative viability ([12]; first compound 0.8 µM) was 0.876 and the relative viability ([12]; first compound 2.53 µM) was 0.907. It also gave a relative viability ([12]; first compound 8 µM) of 0.98.

In the case of `O=c1cc(N2CCOCC2)oc2c(-c3cccc4c3sc3ccccc34)cccc12` + CS(=O)(=O)N1CCN(Cc2cc3nc(-c4cccc5[nH]ncc45)nc(N4CCOCC4)c3s2)CC1 [Pictilisib] (partner 1 µM), the relative viability ([1]; first compound 0.01 µM) is reported as 0.582, the relative viability ([1]; first compound 0.03162 µM) is reported as 0.526 and the relative viability ([1]; first compound 0.1 µM) is reported as 0.601. For the same molecule, the relative viability ([1]; first compound 0.3162 µM) was 0.516, the relative viability ([1]; first compound 1 µM) was 0.599 and the relative viability ([2]; first compound 0.01 µM) was 0.879. For the same molecule, the relative viability ([2]; first compound 0.03162 µM) was 0.917, the relative viability ([2]; first compound 0.1 µM) was 1.06 and the relative viability ([2]; first compound 0.3162 µM) was 0.9. For the same molecule, the relative viability ([2]; first compound 1 µM) was 1.04, the relative viability ([3]; first compound 0.01 µM) was 0.409 and the relative viability ([3]; first compound 0.03162 µM) was 0.35. It also gave a relative viability ([3]; first compound 0.1 µM) of 0.338, a relative viability ([3]; first compound 0.3162 µM) of 0.378 and a relative viability ([3]; first compound 1 µM) of 0.371. For the same molecule, the relative viability ([4]; first compound 0.01 µM) was 0.304, the relative viability ([4]; first compound 0.03162 µM) was 0.34 and the relative viability ([4]; first compound 0.1 µM) was 0.271. The relative viability ([4]; first compound 0.3162 µM) was 0.357, the relative viability ([4]; first compound 1 µM) was 0.337 and the relative viability ([5]; first compound 0.01 µM) was 0.922. For the same molecule, the relative viability ([5]; first compound 0.03162 µM) was 0.688, the relative viability ([5]; first compound 0.1 µM) was 0.897 and the relative viability ([5]; first compound 0.3162 µM) was 0.816. The relative viability ([5]; first compound 1 µM) was 0.801, the relative viability ([6]; first compound 0.01 µM) was 0.451 and the relative viability ([6]; first compound 0.03162 µM) was 0.642. It also gave a relative viability ([6]; first compound 0.1 µM) of 0.636, a relative viability ([6]; first compound 0.3162 µM) of 0.615 and a relative viability ([6]; first compound 1 µM) of 0.56. For the same molecule, the relative viability ([7]; first compound 0.01 µM) was 0.245, the relative viability ([7]; first compound 0.03162 µM) was 0.221 and the relative viability ([7]; first compound 0.1 µM) was 0.223. The relative viability ([7]; first compound 0.3162 µM) was 0.253, the relative viability ([7]; first compound 1 µM) was 0.252 and the relative viability ([8]; first compound 0.01 µM) was 0.349. For the same molecule, the relative viability ([8]; first compound 0.03162 µM) was 0.336, the relative viability ([8]; first compound 0.1 µM) was 0.349 and the relative viability ([8]; first compound 0.3162 µM) was 0.348. The relative viability ([8]; first compound 1 µM) was 0.35, the relative viability ([9]; first compound 0.01 µM) was 0.304 and the relative viability ([9]; first compound 0.03162 µM) was 0.321. The relative viability ([9]; first compound 0.1 µM) was 0.282, the relative viability ([9]; first compound 0.3162 µM) was 0.305 and the relative viability ([9]; first compound 1 µM) was 0.312. For the same molecule, the relative viability ([10]; first compound 0.01 µM) was 0.907, the relative viability ([10]; first compound 0.03162 µM) was 1 and the relative viability ([10]; first compound 0.3162 µM) was 0.896. For the same molecule, the relative viability ([10]; first compound 1 µM) was 1.04, the relative viability ([11]; first compound 0.01 µM) was 0.427 and the relative viability ([11]; first compound 0.03162 µM) was 0.389. It also gave a relative viability ([11]; first compound 0.1 µM) of 0.434, a relative viability ([11]; first compound 0.3162 µM) of 0.472 and a relative viability ([11]; first compound 1 µM) of 0.388. It also gave a relative viability ([12]; first compound 0.01 µM) of 0.509, a relative viability ([12]; first compound 0.03162 µM) of 0.507 and a relative viability ([12]; first compound 0.1 µM) of 0.595. For the same molecule, the relative viability ([12]; first compound 0.3162 µM) was 0.664 and the relative viability ([12]; first compound 1 µM) was 0.514.
